Among the data in ChEMBL document CHEMBL1909046, “DrugMatrix in vitro pharmacology data” are IC50 and Ki values, retold here.

pIC50, pKi: −log10 of the molar value.

Test [1] is described as follows: DRUGMATRIX: Glutamate, Kainate radioligand binding (ligand: [3H] Kainic acid). The format is cell membranes, Rattus norvegicus, Wistar, Brain, Membrane. The settings on record: Not Active = under 50% inhibition at 10 µM.
Test [2] deals with T1, Angiotensin-converting enzyme (Oryctolagus cuniculus, UniProt P12822).
T1 sequence (P12822 whole entry): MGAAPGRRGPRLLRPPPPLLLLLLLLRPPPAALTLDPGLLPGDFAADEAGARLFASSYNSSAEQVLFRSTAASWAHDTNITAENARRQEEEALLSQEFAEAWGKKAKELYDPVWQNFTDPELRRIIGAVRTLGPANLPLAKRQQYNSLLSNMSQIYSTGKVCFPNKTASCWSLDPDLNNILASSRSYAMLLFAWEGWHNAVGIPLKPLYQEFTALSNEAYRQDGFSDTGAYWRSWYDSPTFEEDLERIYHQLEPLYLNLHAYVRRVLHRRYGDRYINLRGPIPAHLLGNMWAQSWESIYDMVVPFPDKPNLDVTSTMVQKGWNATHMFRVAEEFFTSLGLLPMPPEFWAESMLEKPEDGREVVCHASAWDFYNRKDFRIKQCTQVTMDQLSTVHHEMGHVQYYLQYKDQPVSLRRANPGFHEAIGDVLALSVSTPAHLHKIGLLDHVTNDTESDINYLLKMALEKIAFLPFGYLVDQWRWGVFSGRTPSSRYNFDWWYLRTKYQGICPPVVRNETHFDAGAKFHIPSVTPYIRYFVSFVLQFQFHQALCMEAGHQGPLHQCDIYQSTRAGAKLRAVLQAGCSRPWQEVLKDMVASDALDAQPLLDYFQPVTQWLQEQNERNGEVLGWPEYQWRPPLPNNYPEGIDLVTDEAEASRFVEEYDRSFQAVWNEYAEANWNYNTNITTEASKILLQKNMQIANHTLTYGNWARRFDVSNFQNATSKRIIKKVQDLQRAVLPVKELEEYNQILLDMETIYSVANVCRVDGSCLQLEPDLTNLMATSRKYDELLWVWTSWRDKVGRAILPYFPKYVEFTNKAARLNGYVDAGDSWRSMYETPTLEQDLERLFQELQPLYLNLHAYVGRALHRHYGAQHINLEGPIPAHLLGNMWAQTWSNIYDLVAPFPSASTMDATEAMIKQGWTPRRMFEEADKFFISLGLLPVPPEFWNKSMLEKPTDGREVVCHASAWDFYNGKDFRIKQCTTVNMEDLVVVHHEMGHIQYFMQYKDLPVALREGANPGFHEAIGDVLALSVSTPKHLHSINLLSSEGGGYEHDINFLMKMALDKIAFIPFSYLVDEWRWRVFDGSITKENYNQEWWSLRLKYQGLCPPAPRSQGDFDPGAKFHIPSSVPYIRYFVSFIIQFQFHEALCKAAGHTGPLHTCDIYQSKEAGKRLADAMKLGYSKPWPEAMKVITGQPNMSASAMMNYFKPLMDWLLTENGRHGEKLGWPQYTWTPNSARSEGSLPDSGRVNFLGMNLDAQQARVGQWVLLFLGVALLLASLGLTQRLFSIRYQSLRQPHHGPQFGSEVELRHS
Kind of test: biochemical. The test is classed as tissue-based, Lung.

Test [3] is described as follows: DRUGMATRIX: beta-Lactamase enzyme inhibition (substrate: Nitrocefin). Set-up: species or system Bacillus cereus. The conditions noted are these: Not Active = under 50% inhibition at 10 µM.
A short description of test [4]: DRUGMATRIX: Imidazoline I2, Central radioligand binding (ligand: [3H] Idazoxan). The conditions noted are these: Not Active = under 50% inhibition at 10 µM. The test is classed as cell membranes, Rattus norvegicus, Wistar, Cerebral cortex, Membrane.
A short description of test [5]: DRUGMATRIX: Glutamate, NMDA, Phencyclidine radioligand binding (ligand: [3H] TCP). The settings on record: Not Active = under 50% inhibition at 10 µM. The format is cell membranes, Rattus norvegicus, Wistar, Cerebral cortex, Membrane.
Test [6] has as its target T2, B2 bradykinin receptor (Homo sapiens, UniProt P30411). Further: in other assays of this panel Not Active means under 50% inhibition at 10 µM.
T2 sequence (P30411 whole entry): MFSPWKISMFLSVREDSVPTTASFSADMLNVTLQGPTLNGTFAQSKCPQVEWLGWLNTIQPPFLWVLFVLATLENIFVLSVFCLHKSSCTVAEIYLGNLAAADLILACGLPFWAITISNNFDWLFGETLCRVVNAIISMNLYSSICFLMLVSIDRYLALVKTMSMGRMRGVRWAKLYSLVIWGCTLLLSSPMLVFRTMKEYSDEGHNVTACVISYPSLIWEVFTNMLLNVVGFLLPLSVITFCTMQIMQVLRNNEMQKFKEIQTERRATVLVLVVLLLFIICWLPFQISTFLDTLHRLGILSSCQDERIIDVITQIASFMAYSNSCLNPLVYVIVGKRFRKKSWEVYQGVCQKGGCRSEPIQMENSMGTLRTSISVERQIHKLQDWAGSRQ
The format is cell membranes, Membrane. The conditions noted are these: chem-1.

Test [7] deals with T3, Neuropeptide Y receptor type 1 (Homo sapiens, UniProt P25929).
T3 sequence (P25929 whole entry): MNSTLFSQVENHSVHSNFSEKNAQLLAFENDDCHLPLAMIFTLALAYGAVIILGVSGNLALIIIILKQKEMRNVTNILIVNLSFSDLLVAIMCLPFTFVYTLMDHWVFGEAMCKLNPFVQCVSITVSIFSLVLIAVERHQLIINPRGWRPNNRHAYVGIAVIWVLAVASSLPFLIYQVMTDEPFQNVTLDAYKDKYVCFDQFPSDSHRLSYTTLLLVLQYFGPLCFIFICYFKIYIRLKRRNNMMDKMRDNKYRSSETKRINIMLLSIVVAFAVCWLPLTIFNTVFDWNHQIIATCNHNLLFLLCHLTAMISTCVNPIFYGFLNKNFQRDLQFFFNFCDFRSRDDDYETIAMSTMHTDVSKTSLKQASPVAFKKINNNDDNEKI
The format is cell membranes, Membrane. The conditions noted are these: sk-n-mc.

Test [8] concerns the target T4, Neuropeptide Y receptor type 2 (Homo sapiens, UniProt P49146). Further: in other assays of this panel Not Active means under 50% inhibition at 10 µM.
T4 sequence (P49146 whole entry): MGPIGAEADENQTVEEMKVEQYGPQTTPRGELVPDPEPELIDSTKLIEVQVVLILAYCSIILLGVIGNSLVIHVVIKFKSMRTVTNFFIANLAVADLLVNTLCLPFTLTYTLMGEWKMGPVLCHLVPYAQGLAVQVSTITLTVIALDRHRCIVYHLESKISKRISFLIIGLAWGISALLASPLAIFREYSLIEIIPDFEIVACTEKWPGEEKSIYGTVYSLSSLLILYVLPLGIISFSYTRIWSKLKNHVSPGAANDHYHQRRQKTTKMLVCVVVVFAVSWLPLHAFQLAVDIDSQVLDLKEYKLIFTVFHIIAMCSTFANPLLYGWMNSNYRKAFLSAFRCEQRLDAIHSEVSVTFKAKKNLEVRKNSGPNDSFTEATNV
The format is cell membranes, Membrane. The settings on record: kan-ts.

Turning to `COc1ccc(C[C@H](N)C(=O)N[C@H]2[C@@H](O)[C@H](n3cnc4c(N(C)C)ncnc43)O[C@@H]2CO)cc1` [PUROMYCIN], the IC50 entry in test [1], in test [2], in test [3], in test [4], in test [5] and in test [6] was “Not Active” throughout. The IC50 entry in test [7] and in test [8] was “Not Active” each time. In addition, the Ki result in test [1], in test [3], in test [4] and in test [5] was “Not Active” in each case.
As to `NC(=O)NC(=O)Cc1ccccc1` [PHENACEMIDE], the IC50 result in test [1], in test [2], in test [3], in test [4], in test [5] and in test [6] was “Not Active” throughout. Also, the IC50 result in test [7] and in test [8] was “Not Active” in each case. In addition, the Ki entry in test [1], in test [3], in test [4] and in test [5] was “Not Active” each time.
`COc1ccccc1OCCNCC(O)COc1cccc2[nH]c3ccccc3c12` (stereo not given) [CARVEDILOL]: the IC50 result in test [1], in test [2], in test [3], in test [5], in test [6] and in test [7] was “Not Active” each time. Also, the IC50 entry in test [8] is given as “Not Active”. Also, the Ki entry in test [1], in test [3] and in test [5] was “Not Active” throughout. Also, the pIC50 in test [4] (read-out: IC50) is 5.72. Moreover, the pKi in test [4] (read-out: Ki) is 5.89.
Take `CC(N)Cc1c[nH]c2ccc(OCc3cccs3)cc12` (stereo not given) [BW-723C86]: the IC50 entry in test [1], in test [2], in test [3], in test [4], in test [5] and in test [6] was “Not Active” throughout. In addition, the IC50 result in test [7] and in test [8] was “Not Active” in each case. Further, the Ki result in test [1], in test [3], in test [4] and in test [5] was “Not Active” each time.
As for `c1ccc2c(c1)Nc1ccccc1S2` [PHENOTHIAZINE], the IC50 result in test [1], in test [2], in test [3], in test [4], in test [5] and in test [6] was “Not Active” throughout. Besides, the IC50 entry in test [7] and in test [8] was “Not Active” in each case. Besides, the Ki entry in test [1], in test [3], in test [4] and in test [5] was “Not Active” in each case.
On to POVIDONE, for which the IC50 entry in test [1], in test [2], in test [3], in test [4], in test [5] and in test [6] was “Not Active” in each case. In addition, the IC50 entry in test [7] and in test [8] was “Not Active” each time. Also, the Ki entry in test [1], in test [2], in test [3], in test [4], in test [5] and in test [6] was “Not Active” in each case. In addition, the Ki entry in test [7] and in test [8] was “Not Active” throughout.
Regarding `CCO` [ALCOHOL], the IC50 result in test [1], in test [2], in test [3], in test [4], in test [5] and in test [6] was “Not Active” each time. Further, the IC50 result in test [7] and in test [8] was “Not Active” each time. Also, the Ki entry in test [1], in test [3], in test [4] and in test [5] was “Not Active” throughout.
As to `Clc1cc(Cl)c(OCC#CI)cc1Cl` [HALOPROGIN], the IC50 result in test [1], in test [2], in test [3], in test [4], in test [5] and in test [6] was “Not Active” in each case. Moreover, the IC50 result in test [7] and in test [8] was “Not Active” throughout. The Ki result in test [1], in test [3], in test [4] and in test [5] was “Not Active” throughout.
As for CHROMIC CHLORIDE, the IC50 entry in test [1], in test [2], in test [3], in test [4], in test [5] and in test [6] was “Not Active” in each case. The IC50 entry in test [7] and in test [8] was “Not Active” each time. Also, the Ki entry in test [1], in test [2], in test [3], in test [4], in test [5] and in test [6] was “Not Active” in each case. The Ki entry in test [7] and in test [8] was “Not Active” throughout.
As to `Nc1ccc(Cc2ccc(N)cc2)cc1`, the IC50 entry in test [1], in test [2], in test [3], in test [4], in test [5] and in test [6] was “Not Active” in each case. The IC50 result in test [7] and in test [8] was “Not Active” throughout. Further, the Ki result in test [1], in test [3], in test [4] and in test [5] was “Not Active” each time.
Consider `COc1cc([C@@H]2c3cc4c(cc3[C@H](O)[C@H]3COC(=O)[C@H]23)OCO4)cc(OC)c1OC` [PODOFILOX], for which the IC50 entry in test [1], in test [2], in test [3], in test [4], in test [5] and in test [6] was “Not Active” each time. Further, the IC50 result in test [7] and in test [8] was “Not Active” each time. Besides, the Ki entry in test [1], in test [3], in test [4] and in test [5] was “Not Active” throughout.

By pIC50 is commonly meant the IC50 on a negative log10 scale, so that one unit is a factor of ten. Usually pKi stands for the negative decadic logarithm of the Ki, by convention in mol/L.
